According to patent US11465993B2, “Water soluble novel cyanine fluorophore with tunable properties between near IR and SWIR region for in vivo imaging” (The USA, as represented by the Secretary, Department of …, priority 2018, dated 2022):

What was measured:
[1] = Absorbance spectra of cyanine fluorophores in different solvents (absorbance maximum, molar absorptivity)
[2] = Emission (fluorescence) spectra of cyanine fluorophores in different solvents
[3] = Solubility and aggregation in PBS, serum or organic solvent; details: for aggregation: PBS and serum; for solubility: medium as stated in the value
[4] = pH 7.4 PBS, excitation wavelength per compound (figure legends)
[5] = pH 7.4 PBS, at wavelength of maximum absorbance

| SMILES | absorbance maximum (λmax, abs) ([1]; acetonitrile) [nm] | emission maximum (λmax, emiss) ([2]; acetonitrile) [nm] | absorbance maximum (λmax, abs) ([1]; 0.1% formic acid in acetonitrile) [nm] | emission maximum (λmax, emiss) ([2]; 0.1% formic acid in acetonitrile, excitation at 800 nm) [nm] | absorbance maximum (λmax, abs) ([1]; dichloromethane) [nm] | molar absorptivity (ε) ([1]; dichloromethane) | emission maximum (λmax, emiss) ([2]; dichloromethane) [nm] | absorbance maximum (λmax, abs) ([1]; 10% (v/v) FBS in pH 7.4 PBS) [nm] | molar absorptivity (ε) ([1]; 10% (v/v) FBS in pH 7.4 PBS) | absorbance maximum (λmax, abs) ([1]; methanol) [nm] | molar absorptivity (ε) ([1]; methanol) | absorbance maximum (λmax, abs) ([1]; pH 7.4 PBS) [nm] | emission maximum (λmax, emiss) ([2]; 10% (v/v) FBS in pH 7.4 PBS) [nm] | emission maximum (λmax, emiss) ([2]; methanol) [nm] | emission maximum (λmax, emiss) [2, 4] [nm] | aggregation [3] | molar absorptivity (ε) [1, 5] | solubility [3] |
| --- | --- | --- | --- | --- | --- | --- | --- | --- | --- | --- | --- | --- | --- | --- | --- | --- | --- | --- |
| CC1(C)C(/C=C/C2=C3Oc4ccccc4OC4=C3C(CC2)CC/C4=C\C=C2\N(CCCCS(=O)(=O)[O-])c3ccccc3C2(C)C)=[N+](CCCCS(=O)(=O)[O-])c2ccccc21.[Na+] (centres unmarked) [BisSO3-NIR-890] | – | – | – | – | – | – | – | 877 | 187,000 M^−1cm^−1 | 860 | 275,000 M^−1cm^−1 | 689 | 900 | 890 | 890 | – | – | – |
| CC1(C)C(/C=C/C2=C3Oc4ccc(C(=O)O)cc4OC4=C3C(CC2)CC/C4=C\C=C2\N(CCCCS(=O)(=O)[O-])c3ccc(S(=O)(=O)[O-])cc3C2(C)C)=[N+](CCCCS(=O)(=O)[O-])c2ccc(S(=O)(=O)[O-])cc21.[Na+].[Na+].[Na+] (centres unmarked) [Compound 6] | – | – | – | – | – | – | – | 868 | 192,000 M^−1cm^−1 | 866 | 208,000 M^−1cm^−1 | 860 | 896 | 896 | 896 | only moderate aggregation | 191,000 M^−1cm^−1 | – |
| CC1(C)C(/C=C/C2=C3C4=C(/C(=C/C=C5/N(CCCCS(=O)(=O)O)c6ccc(S(=O)(=O)[O-])cc6C5(C)C)CCC4CC2)c2cc(C(=O)O)ccc23)=[N+](CCCCS(=O)(=O)O)c2ccc(S(=O)(=O)O)cc21.N.N.N (centres unmarked) [Compound 8] | – | – | – | – | – | – | – | 1062 | 99,000 M^−1cm^−1 | 1072 | 117,000 M^−1cm^−1 | 1058 | 1086 | 1103 | 1084 | – | 70,000 M^−1cm^−1 | water-soluble |
| CC1(C)C(/C=C/C2=C3Oc4ccc(C(=O)N(CCCS(=O)(=O)O)CCC(=O)O)cc4OC4=C3C(CC2)CC/C4=C\C=C2\N(CCCCS(=O)(=O)O)c3ccc(S(=O)(=O)[O-])cc3C2(C)C)=[N+](CCCCS(=O)(=O)O)c2ccc(S(=O)(=O)O)cc21.N.N.N.N (centres unmarked) [Compound 10] | – | – | – | – | – | – | – | 871 | 137,000 M^−1cm^−1 | 869 | 187,000 M^−1cm^−1 | 862 | 900 | 896 | 896 | eliminated aggregation in both PBS and serum | 145,000 M^−1cm^−1 | – |
| CN1/C(=C/C=C2\CCC3CCC(/C=C/C4=[N+](C)c5ccccc5C4(C)C)=C4C3=C2c2ccccc24)C(C)(C)c2ccccc21 (centres unmarked) [Compound 25] | – | – | – | – | – | – | – | – | – | 1066 | – | – | – | 1110 | – | – | – | – |
| CC1(C)C(/C=C/C2=C3Oc4ccc(CCC(=O)O)cc4OC4=C3C(CC2)CC/C4=C\C=C2\N(CCCCS(=O)(=O)[O-])c3ccc(S(=O)(=O)[O-])cc3C2(C)C)=[N+](CCCCS(=O)(=O)[O-])c2ccc(S(=O)(=O)[O-])cc21.[Na+].[Na+].[Na+] (centres unmarked) [NIR-900-Et] | – | – | – | – | – | – | – | 864 | 148,000 M^−1cm^−1 | 860 | 253,000 M^−1cm^−1 | 856 | 900 | 890 | 900 | – | 172,000 M^−1cm^−1 | – |
| CC1(C)C(/C=C/C2=C3Sc4ccccc4SC4=C3C(CC2)CC/C4=C\C=C2\N(CCCCS(=O)(=O)[O-])c3ccc(S(=O)(=O)[O-])cc3C2(C)C)=[N+](CCCCS(=O)(=O)[O-])c2ccc(S(=O)(=O)[O-])cc21.[Na+].[Na+].[Na+] (centres unmarked) [NIR-950] | – | – | – | – | – | – | – | 902 | 128,000 M^−1cm^−1 | 890 | 193,000 M^−1cm^−1 | 880 | 955 | 960 | 950 | – | 79,000 M^−1cm^−1 | – |

Second part, led by results:

| absorbance maximum (λmax, abs) ([1]; acetonitrile) [nm] | emission maximum (λmax, emiss) ([2]; acetonitrile) [nm] | absorbance maximum (λmax, abs) ([1]; 0.1% formic acid in acetonitrile) [nm] | emission maximum (λmax, emiss) ([2]; 0.1% formic acid in acetonitrile, excitation at 800 nm) [nm] | absorbance maximum (λmax, abs) ([1]; dichloromethane) [nm] | molar absorptivity (ε) ([1]; dichloromethane) | emission maximum (λmax, emiss) ([2]; dichloromethane) [nm] | SMILES | absorbance maximum (λmax, abs) ([1]; 10% (v/v) FBS in pH 7.4 PBS) [nm] | molar absorptivity (ε) ([1]; 10% (v/v) FBS in pH 7.4 PBS) | absorbance maximum (λmax, abs) ([1]; methanol) [nm] | molar absorptivity (ε) ([1]; methanol) | absorbance maximum (λmax, abs) ([1]; pH 7.4 PBS) [nm] | emission maximum (λmax, emiss) ([2]; 10% (v/v) FBS in pH 7.4 PBS) [nm] | emission maximum (λmax, emiss) ([2]; methanol) [nm] | emission maximum (λmax, emiss) [2, 4] [nm] | aggregation [3] | molar absorptivity (ε) [1, 5] | solubility [3] |
| --- | --- | --- | --- | --- | --- | --- | --- | --- | --- | --- | --- | --- | --- | --- | --- | --- | --- | --- |
| 600 | 780 | – | – | – | – | – | CN1/C(=C/C=C2\CCC3CCC(C=O)=C4C3=C2c2ccccc24)C(C)(C)c2ccccc21 (centres unmarked) [Compound 23] | – | – | – | – | – | – | – | – | – | – | – |
| 540 | 720 | 872 | 906 | – | – | – | CCCC/N=C/C1=C2C3=C(/C(=C/C=C4/N(C)c5ccccc5C4(C)C)CCC3CC1)c1ccccc12 (centres unmarked) [Compound 26] | – | – | – | – | – | – | – | – | – | – | – |
| – | – | – | – | 940 | 134,658 M^−1cm^−1 | 990 | CN1/C(=C/C=C2\CCC3CCC(/C=C/C4=[N+](C)c5ccccc5C4(C)C)=C(Cl)C3=C2Cl)C(C)(C)c2ccccc21 (centres unmarked) [N-methyl-NIR-990] | – | – | 922 | 46,886 M^−1cm^−1 | – | – | 960 | – | – | – | organic soluble |
